# Where two headings read alike, the source gives them in different places.
# Key:
# Assay type in all cases: in vivo
# [1] = tested on: Spodoptera frugiperda; test: Spodoptera frugiperda test on maize plants (SPODFR S); conditions: 6 dai, read-out: % Efficacy
# Procedure: Spodoptera frugiperda Test (SPODFR S)
# (§1) Solvent: 14 parts by weight of dimethylformamide
# (§2) Emulsifier: 2 parts by weight of alkylaryl polyglycol ether
# (§3) To produce a suitable active compound formulation, 1 part by weight of active compound is dissolved with the stated parts by weight of solvent and emulsifier and made up to the desired concentration with water. To produce further test concentrations, water is used for dilution. In the event that addition of ammonium salts or/and penetrants (rapeseed oil methyl ester) is required, these are each pipetted in at a concentration of 1000 ppm after the finished formulation solution has been diluted.
# Maize plants (Zea mays) are sprayed with an active compound formulation of the desired concentration and, in each case after 5, 12 and 19 days, populated with 5 caterpillars (L2) of the fall armyworm (Spodoptera frugiperda).
# The kill is determined 6 days after the infection. 100% means that all the caterpillars have been killed and 0% means that none of the caterpillars have been killed.
# [2] = tested on: Rhipicephalus sanguineus; test: Rhipicephalus sanguineus in vitro contact test with adult brown dog ticks; conditions: application rate 5 μg/cm^2; after 48 h; ticks dead or moribund
# Procedure: Rhipicephalus sanguineus—In Vitro Contact Tests with Adult Brown Dog Ticks
# For the coating of the test tubes, 9 mg of active compound are first dissolved in 1 ml of acetone p.a. and then diluted to the desired concentration with acetone p.a. 250 μl of the solution are distributed homogeneously on the inner walls and the base of a 25 ml glass tube by turning and rocking on an orbital shaker (rocking rotation at 30 rpm for 2 h). With 900 ppm of active compound solution and internal surface area 44.7 cm^2, given homogeneous distribution, an area-based dose of 5 μg/cm^2 is achieved.
# After the solvent has evaporated off, the tubes are populated with 5-10 adult dog ticks (Rhipicephalus sanguineus), sealed with a perforated plastic lid and incubated in a horizontal position in the dark at room temperature and ambient humidity. After 48 h, efficacy is determined. To this end, the ticks are knocked to the base of the tube and incubated on a hotplate at 45-50° C. for not more than 5 min. Ticks which remain motionless on the base or move in such an uncoordinated manner that they are unable to deliberately avoid the heat by climbing upwards are considered to be dead or moribund.
# An efficacy of 100% means that all the ticks were dead or moribund. 0% efficacy means that none of the ticks were harmed.
# [3] = tested on: Myzus persicae; test: Myzus persicae spray test on bell pepper plants (MYZUPE S); conditions: 144 h, 6 dat, read-out: % Efficacy
# Procedure: Myzus persicae—Spray Test (MYZUPE S)
# as §1
# (§4) Emulsifier: alkylaryl polyglycol ether
# To produce a suitable active compound preparation, 1 part by weight of active compound is dissolved using the stated parts by weight of solvent and made up with water containing an emulsifier concentration of 1000 ppm until the desired concentration is attained. To produce further test concentrations, the formulation is diluted with emulsifier-containing water. If the addition of ammonium salts or/and penetrants is required, these are each added in a concentration of 1000 ppm to the formulation solution.
# Bell pepper plants (Capsicum annuum) severely infested with the green peach aphid (Myzus persicae) are treated by spraying with the active compound formulation in the desired concentration.
# After the desired time, the kill in % is determined. 100% means that all the animals have been killed; 0% means that no animals have been killed.
# [4] = tested on: Phaedon cochleariae; test: Phaedon cochleariae spray test; conditions: foliar, 168 h, application rate 100 g/ha, Chinese cabbage leaf discs, after 7 days, read-out: efficacy
# Outline: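 Chinese cabbage leaf discs sprayed with compound formulated in acetone/DMF and emulsifier-containing water, then infested with mustard beetle larvae after drying. Efficacy read after 7 days as % larvae killed.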
# [5] = tested on: Ctenocephalides felis; test: Ctenocephalides felis oral test; conditions: 48 h, application rate 100 ppm, in citrated cattle blood, after 2 days, read-out: efficacy (kill in %)
# Outline: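 Adult unfed cat fleas (~20 per chamber) fed through parafilm membrane on citrated cattle blood containing compound (DMSO formulation diluted in blood to test concentration). Kill (%) scored after 2 days; 100% = all fleas dead, 0% = none.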
# [6] = tested on: Phaedon cochleariae; test: Phaedon cochleariae test on cabbage plants (PHAECO S); conditions: 6 dai, read-out: % Efficacy
# Procedure: Phaedon cochleariae Test (PHAECO S)
# as §1, §2, §3
# Cabbage plants (Brassica oleracea var. sabauda) are sprayed with an active compound formulation of the desired concentration and populated with 10 L2 larvae of the mustard beetle (Phaedon cochleariae).
# After the desired time, the kill in % is determined. 100% means that all the larvae have been killed and 0% means that none of the larvae have been killed.
# [7] = tested on: Spodoptera frugiperda; test: Spodoptera frugiperda spray test; conditions: foliar, 168 h, application rate 100 g/ha, maize leaf discs, after 7 days, read-out: efficacy
# Procedure: Spodoptera frugiperda—Spray Test
# Solvent: • 78.0 parts by weight of acetone • 1.5 parts by weight of dimethylformamide
# as §4
# To produce further test concentrations, the formulation is diluted with emulsifier-containing water.
# After 7 days, the efficacy in % is determined. 100% means that all the caterpillars have been killed; 0% means that no caterpillar has been killed.
# [8] = tested on: Myzus persicae; test: Myzus persicae drench test (MYZUPE D); conditions: soil, 240 h, 10 dat, read-out: % Efficacy
# Procedure: Myzus persicae—Drench Test (MYZUPE D)
# Solvent: 7 parts by weight of dimethylformamide
# Emulsifier: 2 part by weight of alkylaryl polyglycol ether
# To produce a suitable active compound preparation, 1 part by weight of active compound is mixed with the specified amounts of solvent and emulsifier, and the concentrate is diluted with water to the desired concentration, it being necessary to include the volume of soil which is drenched in the calculation. It should be ensured that a concentration of 40 ppm of emulsifier in the soil is not exceeded. To produce further test concentrations, water is used for dilution.
# Savoy cabbage (Brassica oleracea) in pots with soil and infested by all stages of the green peach aphid (Myzus persicae) is watered with an active compound preparation of the desired concentration.
# After the desired period of time, the efficacy in % is determined. 100% means that all the aphids have been killed; 0% means that no aphids have been killed.
smiles,measurement,setting,value
"CCS(=O)(=O)c1c(-c2nc3cc(C(F)(F)F)cnc3n2C)ncc2cc(Br)ccc12 [Example I-037, 7-Bromo-4-ethylsulfonyl-3-[3-methyl-6-(trifluoromethyl)imidazo[4,5-b]pyridin-2-yl]isoquinoline]",Emax at 0.16 ppm,"[1]; 120 h, infection 5 dat",70%
same,Emax at 0.16 ppm,"[1]; 288 h, infection 12 dat",50%
same,Emax at 0.8 ppm,"[1]; 288 h, infection 12 dat",100%
same,Emax at 0.8 ppm,"[1]; 456 h, infection 19 dat",100%
same,efficacy,[2],100%
same,Emax at 0.8 ppm,[3]; 0.8 ppm,100%
same,Emax at 4 ppm,[3]; 4 ppm,100%
same,pest or weed control at 100 g/ha,[4],100%
same,pest or weed control at 100 ppm,[5],100%
same,Emax at 0.16 ppm,"[6]; 120 h, infection 5 dat",80%
same,Emax at 0.16 ppm,"[6]; 288 h, infection 12 dat",60%
same,Emax at 0.8 ppm,"[6]; 288 h, 0.8 ppm, infection 12 dat",100%
same,pest or weed control at 100 g/ha,[7],100%
same,Emax at 4 ppm,[8],90%

# Source: US20230060425A1, “FUSED BICYCLIC HETEROCYCLE DERIVATIVES AS PESTICIDES” (Bayer Aktiengesellschaft, priority 2019, published 2023)
